Measured values: patent US8258177B2, “4-((phenoxyalkyl)thio)-phenoxyacetic acids and analogs” (Janssen Pharmaceutica, N.V., priority 2003, dated 2012)
Several values for one entry are separate records, joined by “and”; a condition that tells them apart may be missing. Equal values may be shown once.

Target: T1, PPAR delta (Homo sapiens, UniProt Q03181)
T1 sequence (Q03181 211-441 limits assumed): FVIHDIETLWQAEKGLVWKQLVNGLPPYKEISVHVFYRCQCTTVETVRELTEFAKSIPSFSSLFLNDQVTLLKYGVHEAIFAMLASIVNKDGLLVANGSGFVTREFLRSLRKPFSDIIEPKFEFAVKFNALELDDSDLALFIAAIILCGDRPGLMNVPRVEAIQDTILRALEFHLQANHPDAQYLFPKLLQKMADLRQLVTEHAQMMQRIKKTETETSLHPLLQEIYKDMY
Assay: Transfection assay for PPAR receptors (PPAR-Gal4 / Gal4-Luciferase reporter in HEK293 cells)
Format: cell-based
Settings: HEK293 cells co-transfected with PPAR-Gal4 receptor and Gal4-Luciferase reporter; 24 hours; multiple values = multiple measurements; read-out: EC50 (PPAR delta)
Procedure: Transfection Assay Method for PPAR Receptors
HEK293 cells were grown in DMEM/F-12 Media supplemented with 10% FBS and glutamine (GIBCOBRL). The cells were co-transfected with DNA for PPAR-Gal4 (PPARα, γ or δ) receptor and Gal4-Luciferase Reporter using the DMRIE-C Reagent. On the following day, the medium was replaced with 5% Charcoal treated FBS growth medium. After six hours, cells were trypsinized and seeded at a density of 50,000 cell/well into 96 well plates and incubated overnight at 37° C. in a 5% CO2 incubator. Cells were then treated with test compounds or vehicle and incubated for 24 hours at 37° C. in a 5% CO2 incubator. Luciferase activity was assayed using the Steady-Glo Luciferase Assay Kit from Promega. […] Steady-Glo Luciferase Assay Kit was purchased from Promega Part# E254B.

With `C=C(COc1ccccc1)CSc1ccc(OCC(=O)O)c(C)c1` [Compound 3, [2-Methyl-4-(2-phenoxymethyl-allylsulfanyl)-phenoxy]-acetic acid] as the compound, how does the EC50 read?
The EC50 was 711 nM.

With `C=C(COc1ccc(C(F)(F)F)cc1)CSc1ccc(OCC(=O)O)c(Cl)c1` [Compound 11, {2-Chloro-4-[2-(4-trifluoromethyl-phenoxymethyl)-allylsulfanyl]-phenoxy}-acetic acid] as the compound, how does the EC50 read?
Its EC50 is 45.1 nM and 48.3 nM.

With `C=C(COc1ccc(Cl)cc1)CSc1ccc(OCC(=O)O)c(C)c1` [Compound 5, {4-[2-(4-Chloro-phenoxymethyl)-allylsulfanyl]-2-methyl-phenoxy}-acetic acid] as the compound, how does the EC50 read?
The EC50 was 79.2 nM and 51.8 nM.

For `CCCC(CCC)(COc1ccc(C(F)(F)F)cc1)CSc1ccc(OCC(=O)O)c(C)c1` [Compound 24, {2-Methyl-4-[2-propyl-2-(4-trifluoromethyl-phenoxymethyl)-pentylsulfanyl]phenoxy}-acetic acid], which EC50 is on record?
The EC50 was 9.7 nM and 7.4 nM.

Which EC50 does the source give for `CCC(O)(COc1ccc(C(F)(F)F)cc1)CSc1ccc(OCC(=O)O)c(C)c1` (centres unmarked) [Compound 28, {4-[2-Hydroxy-2-(4-trifluoromethyl-phenoxymethyl)butylsulfanyl]-2-methyl-phenoxy}-acetic acid] here?
The EC50 was 122 nM.

Which EC50 does the source give for `CC(C)=C(COc1ccc(C(F)(F)F)cc1)CSc1ccc(OCC(=O)O)c(C)c1` [Compound 15, {2-Methyl-4-[3-methyl-2-(4-trifluoromethyl-phenoxymethyl)-but-2-enylsulfanyl]-phenoxy}-acetic acid] here?
The EC50 was 22.7 nM and 22.1 nM.

With `Cc1cc(SCC(F)(F)COc2ccc(C(F)(F)F)cc2)ccc1OCC(=O)O` [Compound 25, {4-[2,2-Difluoro-3-(4-trifluoromethyl-phenoxy)-propylsulfanyl]-2-methyl-phenoxy}-acetic acid] as the compound, how does the EC50 read?
Its EC50 is 147 nM.

For `C=C(COc1ccc(OC(F)(F)F)cc1)CSc1ccc(OCC(=O)O)c(C)c1` [Compound 4, {2-Methyl-4-[2-(4-trifluoromethoxy-phenoxymethyl)-allylsulfanyl]-phenoxy}-acetic acid], which EC50 is on record?
Its EC50 is 29 nM and 27.8 nM.

Which EC50 does the source give for `C=C(CCSc1ccc(OCC(=O)O)c(C)c1)Oc1ccc(C(F)(F)F)cc1` [Compound 20, {2-Methyl-4-[3-(4-trifluoromethyl-phenoxy)-but-3-enylsulfanyl]phenoxy}-acetic acid] here?
The EC50 was 194 nM.

For `C=C(COc1ccc(C(F)(F)F)cc1)CSc1ccc(CC(=O)O)cc1Cl` [Compound 22, {3-Chloro-4-[2-(4-trifluoromethyl-phenoxymethyl)-allylsulfanyl]-phenyl}-acetic acid], which EC50 is on record?
The EC50 was 28.9 nM and 68.3 nM.

For `Cc1cc(SCC2(COc3ccc(C(F)(F)F)cc3)COC(C)(C)O2)ccc1OCC(=O)O` (centres unmarked) [Compound 27, {4-[2,2-Dimethyl-4-(4-trifluoromethyl-phenoxymethyl)-[1,3]dioxolan-4-ylmethylsulfanyl]-2-methyl-phenoxy}-acetic acid], which EC50 is on record?
The EC50 was 119 nM.

For `C=C(CSc1ccc(OCC(=O)O)c(C)c1)Oc1ccc(C(F)(F)F)cc1` [Compound 21, {2-Methyl-4-[2-(4-trifluoromethyl-phenoxy)-allylsulfanyl]-phenoxy}-acetic acid], which EC50 is on record?
The EC50 was greater than 1000 nM.

With `C=C(COc1ccc(N(C)C)cc1)CSc1ccc(OCC(=O)O)c(C)c1` [Compound 10, {4-[2-(4-Dimethylamino-phenoxymethyl)-allylsulfanyl]-2-methyl-phenoxy}-acetic acid] as the compound, how does the EC50 read?
Its EC50 is 238 nM.

Which EC50 does the source give for `Cc1cc(SCC(COc2ccc(C(F)(F)F)cc2)=C(F)F)ccc1OCC(=O)O` [Compound 16, {4-[3,3-Difluoro-2-(4-trifluoromethyl-phenoxymethyl)-allylsulfanyl]-2-methyl-phenoxy}-acetic acid] here?
Its EC50 is 87.8 nM and 51.4 nM.

With `Cc1cc(SCC(=Cc2cccc3ccccc23)COc2ccc(C(F)(F)F)cc2)ccc1OCC(=O)O` [Compound 19, {2-Methyl-4-[3-naphthalen-1-yl-2-(4-trifluoromethyl-phenoxymethyl)-allylsulfanyl]-phenoxy}-acetic acid] as the compound, how does the EC50 read?
Its EC50 is 67.7 nM and 49.7 nM.

For `C=C(COc1ccc(C(F)(F)F)cc1)COc1ccc(OCC(=O)O)c(C)c1` [Compound 29], which EC50 is on record?
Its EC50 is 249 nM.

Which EC50 does the source give for `C=C(COc1ccc(Cl)c(Cl)c1)CSc1ccc(OCC(=O)O)c(C)c1` [Compound 6, {4-[2-(3,4-Dichloro-phenoxymethyl)-allylsulfanyl]-2-methyl-phenoxy}-acetic acid] here?
Its EC50 is 56.6 nM and 42.9 nM.

With `C=C(COc1ccc(Cl)cc1Cl)CSc1ccc(OCC(=O)O)c(C)c1` [Compound 7, {4-[2-(2,4-Dichloro-phenoxymethyl)-allylsulfanyl]-2-methyl-phenoxy}-acetic acid] as the compound, how does the EC50 read?
Its EC50 is 138 nM.

With `Cc1cc(SCC(=CC#N)COc2ccc(C(F)(F)F)cc2)ccc1OCC(=O)O` [Compound 17, {4-[3-Cyano-2-(4-trifluoromethyl-phenoxymethyl)-allylsulfanyl]-2-methyl-phenoxy}-acetic acid] as the compound, how does the EC50 read?
Its EC50 is 32.1 nM and 38.7 nM.

For `C=C(COc1ccc(OC)cc1)CSc1ccc(OCC(=O)O)c(C)c1` [Compound 9, {4-[2-(4-Methoxy-phenoxymethyl)-allylsulfanyl]-2-methyl-phenoxy}-acetic acid], which EC50 is on record?
Its EC50 is 216 nM.

Same assay, conditions: value printed in running text after characterisation data; multiple values = multiple measurements; read-out: PPARdleta EC50

Which EC50 does the source give for `C=C(COc1ccc(C(F)(F)F)cn1)CSc1ccc(OCC(=O)O)c(C)c1` [[2-methyl-4-[[2-[[[5-(trifluoromethyl)-2-pyridinyl]oxy]methyl]-2-propenyl]thio]phenoxy]-acetic acid] here?
The EC50 was greater than 3000 nM.

Which EC50 does the source give for `C=C(COc1ccc(C(F)(F)F)cc1)C[S+]([O-])c1ccc(OCC(=O)O)c(C)c1` (centres unmarked) [[2-methyl-4-[[2-[[4-(trifluoromethyl)phenoxy]methyl]-2-propenyl]sulfinyl]phenoxy]-acetic acid] here?
The EC50 was greater than 3000 nM.

For `C=C(COc1ccc(C(F)(F)F)cc1)CSc1ccc(Cl)cc1OCC(=O)O` [[5-chloro-2-[[2-[[4-(trifluoromethyl)phenoxy]methyl]-2-propenyl]thio]phenoxy]-acetic acid], which EC50 is on record?
Its EC50 is greater than 3000 nM.

With `C=C(COc1ccc(C(C)=O)c(O)c1CCC)CSc1ccc(OCC(=O)O)c(C)c1` [{4-[2-(4-acetyl-3-hydroxy-2-propyl-phenoxymethyl)-allylsulfanyl]-2-methyl-phenoxy}-acetic acid] as the compound, how does the EC50 read?
Its EC50 is 13 nM and 18 nM.

Test system: differentiated THP-1 monocytes
Assay: not given
Settings: cited from earlier work

For `Cc1cc(SCc2sc(-c3ccc(C(F)(F)F)cc3)nc2C)ccc1OCC(=O)O` [GW501516], which “ABCA1 mRNA expression” value is on record?
Its value is “induced ABCA1 mRNA expression”.

And the cholesterol efflux?
Its cholesterol efflux is “enhanced cholesterol efflux”.
